# Reference: US11584727B2, “2-thioxothiazolidin-4-one derivatives active as transthyretin ligands and uses thereof” (BSIM Therapeutics, S.A., priority 2014, dated 2023)
# Where two headings read alike, the source gives them in different places.
# Experiments:
# [1] = target: Val122Ile transthyretin (V122I-TTR) (Homo sapiens, UniProt P02766, V142I); test: V122I-TTR amyloid fibril formation assay (turbidimetry, acid-induced); format: biochemical; settings: pH 4.4, 72 hours; for Fibril Formation (%): V122I-TTR 3.6 μM, 37° C.; for IC50: V122I-TTR fixed at 3.6 μM, ten compound concentrations
# Procedure: (§1) The first set of evaluations is based on a fast, stagnant fibril formation assay that is used for the early screening of compounds, be they virtual screening hits or newly synthesized analogues. In this assay, a solution of the compound under test at 1.8, 3.6 or 7.2 μM is added to a solution of TTR at 3.6 μM, so that there is enough compound to bind to either one or both of TTR's binding sites. The pH of the resulting solution is then lowered to 4.4 to promote amyloidogenesis. The process of amyloid fibril formation over time is assessed by turbidimetry measurements at three different wavelengths (405, 450 and 490 nm, or at 550, 600 and 650 nm when the compound absorbs light at the previous wavelengths), using a spectrophotometer endowed with a BioTek microplate reader. The extent of fibril formation of each mixture is determined by normalizing a sample with the protein (TTR), in absence of compounds, which, at the end of 72 hours, represents 100% of amyloid fibril formation. In each experiment, each compound concentration is tested in triplicate. For each compound concentration and incubation time, the arithmetic mean of the triplicate experiments is calculated, as well as the arithmetic mean of the three measured wavelengths. High activity can be defined as a percentage of fibril formation below 10% at compound concentration 7.2 μM (TTR:compound stoichiometry 1:2) and below 40% at 3.6 μM (TTR:compound stoichiometry 1:1).
# (§2) Purchased virtual screening hits and all synthesized (optimization) derivatives were dissolved in DMSO to a final concentration of 10.8 mM to provide a primary stock solution. Several secondary stock solutions were prepared in DMSO by dilution of the primary stock solution and the concentrations were chosen depending on the effectiveness of the compound in inhibiting the TTR amyloid fibril formation.
# (§3) The fibril formation assay was adapted to run in a high-throughput screening mode. For this purpose, 96-well microplates were used with a final assay volume of 100 μL.
# (§4) One microLitre (μL) of different compound secondary stock solutions was added to 50 μL of a 7.2 μM wild type TTR (WT-TTR) or Val122Ile-TTR (V122I-TTR) solutions in 10 miliMolar (mM) sodium phosphate buffer, 100 mM KCl and 1 mM EDTA, pH 7.2, previously dialyzed against the same buffer solution. After 30 minutes of incubation at room temperature, the pH of the mixture was lowered to 4.4 with 49 μL of 200 mM acetate buffer, 100 mM KCl and 1 mM EDTA, pH 4.3.
# (§5) The mixtures were incubated at 37° C. during 72 hours. Turbidity at 405 nm, 450 nm and 490 nm (or at 550, 600 and 650 nm when the test compound absorbs light at the previous wavelengths) was measured over time (0, 17, 24, 41, 48, 65 and 72 hours) using a BioTek Microplate Spectrophotometer to evaluate the extent of fibril formation. Immediately before the turbidity measurements, the mixtures were gently shacked during 1 minute to homogenize well and not damage the formed amyloid aggregates and fibrils. The final turbidity was calculated as an average of the three wavelengths measured.
# In addition, control samples containing TTR with no inhibitor and 1% DMSO, as well as inhibitor in absence of TTR were tested and analyzed.
# The extent of amyloid fibril formation data was normalized to TTR in the absence of inhibitor, assigned to be 100% fibril formation (or 0% amyloid inhibition) at the end of the experiment.
# The extent of amyloid fibril formation throughout 72 hours was determined as described in the “Evaluation of amyloid inhibition in vitro” subsection above.
# IC50 values were calculated from the inhibition curves obtained by fitting the values by a nonlinear curve method using the OriginPro7 (OriginLab Corporation, USA).
# [2] = target: T1, wild type transthyretin (WT-TTR) (Homo sapiens, UniProt P02766); test: WT-TTR amyloid fibril formation assay (turbidimetry, acid-induced); format: biochemical; settings: pH 4.4, 72 hours; for Fibril Formation (%): WT-TTR 3.6 μM, 1:1 TTR-compound stoichiometry, 37° C., normalized to no-compound control (100%); for IC50: WT-TTR fixed at 3.6 μM, ten compound concentrations; for inhibitory activity against TTR amyloid fibril formation compared with reference compounds (in words): TTR 3.6 μM
# T1 construct: made in house; host or cells: E. coli BL21 (DE3), pET23a plasmid
# Procedure: as §1
# The in vitro activity of the compounds was assessed through a biochemical assay based on turbidimetry measurements, in which fibril formation is induced by acidification of the solution to pH 4.4 after incubation with the hit compound to be tested. The amount of amyloid fibrils formed is then monitored throughout 72 hours. Further details on this assay are provided in the “Evaluation of amyloid inhibition in vitro” subsection in “Materials and Methods”.
# Experimental evaluation of the in vitro activity of virtual screening hits against amyloid fibril formation by TTR was carried out using a biochemical assay based on turbidimetry measurements. In this assay, fibril formation is induced by acidification of the solution to pH 4.4 after incubation with the hit compound to be tested. The amount of amyloid fibrils formed is monitored over 72 hours. Further details on the assay are provided in the “Evaluation of amyloid inhibition in vitro” subsection below.
# as §2, §3, §4
# as §5, with “fibrils.” for “fibrils. The final turbidity was calculated as an average of the three wavelengths measured.”
# [3] = read-out: IC50 (μM), concentration inhibiting WT-TTR amyloid fibril formation by 50%
Molecule,Fibril Formation (%) [1] [%],Fibril Formation (%) [2] [%],IC50 [1] [µM],IC50 [2] [µM],melting point [°C],"IC50 [2, 3] [µM]",inhibitory activity against TTR amyloid fibril formation compared with reference compounds (in words) [2],"IC50 ([1]; read-out: IC50 (μM), concentration inhibiting V122I-TTR amyloid fibril formation by 50%) [µM]"
"Oc1c(Cl)cc(-c2cc(Cl)c(O)c(Cl)c2)cc1Cl [2OH- PCB80, 2,6-dichloro-4-(3,5-dichloro-4-oxidophenyl)benzen-1-olate, reference compound]",24,20,1.45,–,–,1.59 ± 0.27,–,–
"COc1cc(/C=C2/SC(=S)N(CC(=O)O)C2=O)cc(Cl)c1O [AT50-A00 (E), (E)-3-hydroxycarbonylmethyl-5-(3′-chloro-4′-hydroxy-5′-methoxyphenylmethylidene)-2-thioxothiazolidin-4-one]",45,26,3.06,1.73 ± 0.06,–,–,–,–
"O=C(O)CN1C(=O)/C(=C/c2cc(O)c(O)c(Cl)c2)SC1=S [AT50-A01, (Z)-5-(3′-chloro-4′,5′-dihydroxyphenylmethylidene)-3-hydroxycarbonylmethyl-2-thioxothiazolidin-4-one]",29,12,2.34,1.45 ± 0.04,241 to 242,–,–,–
"O=C(O)CN1C(=O)/C(=C/c2ccc(O)cc2)SC1=S [AT50-A11, (Z)-3-hydroxycarbonylmethyl-5-(4′-hydroxyphenylmethylidene)-2-thioxothiazolidin-4-one]",–,35,–,–,213 to 214,–,–,–
"Cc1cc(/C=C2\SC(=S)N(CC(=O)O)C2=O)cc(O)c1O [AT50-A35, (Z)-5-(3′,4′-dihydroxy-5′-methylphenylmethylidene)-3-hydroxycarbonylmethyl-2-thioxothiazolidin-4-one]",–,21,–,2.23,238 to 239,–,–,–
"COc1cc(/C=C2\SC(=S)N(CC(=O)O)C2=O)cc(C)c1O [AT50-A47, (Z)-3-hydroxycarbonylmethyl-5-(4′-hydroxy-3′-methoxy-5′-methylphenylmethylidene)-2-thioxothiazolidin-4-one]",–,21,–,2.05,238 to 239,–,–,–
"O=C(O)CN1C(=O)/C(=C/c2cc(Br)c(O)c(Br)c2)SC1=S [AT50-A50, (Z)-5-(3′,5′-dibromo-4′-hydroxyphenylmethylidene)-3-hydroxycarbonylmethyl-2-thioxothiazolidin-4-one]",–,8,–,0.9,–,–,–,–
"(Z)-5-(3′,5′-dichloro-4′-hydroxyphenylmethylidene)-3-hydroxycarbonylmethyl-2,4-dioxothiazolidine [AT50-A49]",12,4,–,–,–,0.89 ± 0.15,–,1.32
"(Z)-5-(3′-bromo-4′-hydroxy-5′-iodophenylmethylidene)-3-hydroxycarbonylmethyl-2,4-dioxothiazolidine [AT50-A51]",–,5,–,–,–,1.07 ± 0.42,–,–

# More lines, main results first:
Fibril Formation (%) [1] [%],Fibril Formation (%) [2] [%],IC50 [1] [µM],IC50 [2] [µM],melting point [°C],Molecule,"IC50 [2, 3] [µM]",inhibitory activity against TTR amyloid fibril formation compared with reference compounds (in words) [2],"IC50 ([1]; read-out: IC50 (μM), concentration inhibiting V122I-TTR amyloid fibril formation by 50%) [µM]"
42,28,–,–,–,"NC(Cc1cc(I)c(Oc2cc(I)c(O)c(I)c2)c(I)c1)C(=O)O (stereo in doubt) [Thyroxine, (2S)-2-amino-3-[4-(4-hydroxy-3,5-diiodophenoxy)-3,5-diiodophenyl]propanoic acid, reference compound]",–,–,–
–,35,–,2.38 ± 0.17,–,"COc1cccc(/C=C2\SC(=S)N(C(C)C(=O)O)C2=O)c1 (centres unmarked) [AT50-B00, (Z)-3-(1′-hydroxycarbonylethyl)-5-(3′-methoxyphenylmethylidene)-2-thioxothiazolidin-4-one]",–,superior to that of reference compounds Tafamidis,–
20,10,1.48,0.95 ± 0.45,–,"COc1cc(/C=C2\SC(=S)N([C@H](CC(C)C)C(=O)O)C2=O)cc(OC)c1O [AT50-B01, (Z)-(1′S)-5-(4′-hydroxy-3′,5′-dimethoxyphenylmethylidene)-3-(1′-hydroxycarbonylisopentyl)-2-thioxothiazolidin-4-one]",–,–,–
–,26,–,2.05 ± 0.04,–,"O=C(O)CC[C@@H](C(=O)O)N1C(=O)/C(=C/c2c(Cl)cccc2Cl)SC1=S [AT50-C00, (Z)-(1′S)-5-(2′,6′-dichlorophenylmethylidene)-3-(1′,3′-di(hydroxycarbonyl)propyl)-2-thioxothiazolidin-4-one]",–,superior to that of reference compounds Tafamidis,–
39,13,2.66,1.38 ± 0.3,–,"O=C(O)CC[C@@H](C(=O)O)N1C(=O)/C(=C/c2ccc(O)c(Br)c2)SC1=S [AT50-C01, (Z)-(1′S)-5-(3′-bromo-4′-hydroxyphenylmethylidene)-3-(1′,3′-di(hydroxycarbonyl)propyl)-2-thioxothiazolidin-4-one]",–,–,–
–,18,–,1.79 ± 0.13,–,"Cc1cc(/C=C2\SC(=S)N([C@@H](CCC(=O)O)C(=O)O)C2=O)cc(Cl)c1O [AT50-C02, (Z)-(1′S)-5-(3′-chloro-4′-hydroxy-5′-methylphenylmethylidene)-3-(1′,3′-di(hydroxycarbonyl)propyl)-2-thioxothiazolidin-4-one]",–,–,–
–,30,–,–,194 to 196,"COc1cc(/C=C2\SC(=S)N(CCC(=O)O)C2=O)cc(C)c1O [AT50-C18, (Z)-5-(4′-hydroxy-3′-methoxy-5′-methylphenylmethylidene)-3-(2′-hydroxycarbonylethyl)-2-thioxothiazolidin-4-one]",–,–,–
–,33,–,–,243 to 245,"O=C(O)CCN1C(=O)/C(=C/c2cc(O)c(O)c(Cl)c2)SC1=S [AT50-C19, (Z)-5-(3′-chloro-4′,5′-dihydroxyphenylmethylidene)-3-(2′-hydroxycarbonylethyl)-2-thioxothiazolidin-4-one]",–,–,–
–,39,–,–,221 to 222,"Cc1cc(/C=C2\SC(=S)N(CCC(=O)O)C2=O)cc(O)c1O [AT50-C20, (Z)-5-(3′,4′-dihydroxy-5′-methylphenylmethylidene)-3-(2′-hydroxycarbonylethyl)-2-thioxothiazolidin-4-one]",–,–,–
